Biological target: T1, Human complement C1s enzyme (Homo sapiens, UniProt P09871)
T1 sequence (P09871 438-688 limits assumed): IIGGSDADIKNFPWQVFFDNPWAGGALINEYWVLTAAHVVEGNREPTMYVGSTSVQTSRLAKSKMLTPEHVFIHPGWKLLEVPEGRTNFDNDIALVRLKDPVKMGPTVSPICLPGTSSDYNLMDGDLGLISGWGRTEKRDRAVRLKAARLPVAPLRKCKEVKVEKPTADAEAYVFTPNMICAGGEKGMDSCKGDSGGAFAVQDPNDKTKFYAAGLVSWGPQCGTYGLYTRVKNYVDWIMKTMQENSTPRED
T1 sequence (P09871 16-437 partner limits assumed): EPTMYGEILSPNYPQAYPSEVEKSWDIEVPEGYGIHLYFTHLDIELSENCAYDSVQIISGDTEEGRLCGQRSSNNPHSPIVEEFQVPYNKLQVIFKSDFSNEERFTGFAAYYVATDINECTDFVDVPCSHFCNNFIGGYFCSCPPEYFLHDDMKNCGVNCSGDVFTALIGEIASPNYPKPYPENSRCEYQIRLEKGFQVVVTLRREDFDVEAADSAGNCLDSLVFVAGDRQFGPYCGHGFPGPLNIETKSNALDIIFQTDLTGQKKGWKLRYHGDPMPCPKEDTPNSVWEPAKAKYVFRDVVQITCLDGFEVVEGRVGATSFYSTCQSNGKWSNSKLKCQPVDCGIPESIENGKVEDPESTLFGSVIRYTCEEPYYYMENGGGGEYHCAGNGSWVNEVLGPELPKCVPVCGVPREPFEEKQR
Assay: Human C1s enzyme assay
Type: biochemical
Conditions: human complement C1s enzyme 1.16 nM, substrate Z-L-Lys-SBzl 100 μM, 5 min preincubation; read-out: IC50 (Stars), C1s Inhibiting Activity
Summary of the method: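 Serum-purified human C1s (1.16 nM final) preincubated 5 min at room temperature with compound in 50 mM Tris, 1 M NaCl, pH 7.5. Z-L-Lys-SBzl and DTNB added at 100 μM each; A405 followed every 30 s for 30 min, and IC50 obtained by nonlinear regression of reaction rates.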

Row | SMILES | IC50 [nM]
1 | C[C@@H](NC(=O)[C@@H]1C[C@](F)(CF)CN1C(=O)CNC(=O)c1ccc(Oc2ccc(F)cc2)cc1)c1cc2cnccc2[nH]1 [Compound 89, (2S,4R)-N-((R)-1-(1H-pyrrolo[3,2-c]pyridin-2-yl)ethyl)-4-fluoro-4-(fluoromethyl)-1-((4-(4-fluorophenoxy)benzoyl)glycyl)pyrrolidine-2-carboxamide] | > 1000
2 | C[C@@H](NC(=O)[C@@H]1C[C@@H](OC(F)F)CN1C(=O)CNC(=O)c1ccc(-c2ccc(F)cc2F)cc1)c1cc2cnccc2[nH]1 [Compound 90, (2S,4R)-N-((R)-1-(1H-pyrrolo[3,2-c]pyridin-2-yl)ethyl)-1-((2′,4′′-difluoro-[1,1′-biphenyl]-4-carbonyl)glycyl)-4-(difluoromethoxy)pyrrolidine-2-carboxamide] | < 100
3 | C[C@@H](NC(=O)[C@@H]1C[C@@H](OC(F)F)CN1C(=O)CN1Cc2cc(-c3ccc(F)cc3F)ccc2C1=O)c1cc2cnccc2[nH]1 [Compound 91, (2S,4R)-N-((R)-1-(1H-pyrrolo[3,2-c]pyridin-2-yl)ethyl)-4-(difluoromethoxy)-1-(2-(5-(2,4-difluorophenyl)-1-oxoisoindolin-2-yl)acetyl)pyrrolidine-2-carboxamide] | < 100
4 | O=C(NCC(=O)N1C[C@H](OC(F)F)C[C@H]1C(=O)N[C@H](CO)c1cc2cnccc2[nH]1)c1ccc2c(c1)Oc1ccccc1S2 [Compound 93, (2S,4R)-4-(difluoromethoxy)-N-((S)-2-hydroxy-1-(1H-pyrrolo[3,2-c]pyridin-2-yl)ethyl)-1-((phenoxathiine-3-carbonyl)glycyl)pyrrolidine-2-carboxamide] | < 100
5 | O=C(NCC(=O)N1CC2(C[C@H]1C(=O)N[C@H](CO)c1cc3cnccc3[nH]1)OCCO2)c1ccc(Oc2ccc(F)cc2)cc1 [Compound 94, (S)-7-((4-(4-fluorophenoxy)benzoyl)glycyl)-N-((S)-2-hydroxy-1-(1H-pyrrolo[3,2-c]pyridin-2-yl)ethyl)-1,4-dioxa-7-azaspiro[4.4]nonane-8-carboxamide] | > 1000
6 | O=C(NCC(=O)N1C[C@@](F)(CF)C[C@H]1C(=O)N[C@H](CO)c1cc2cnccc2[nH]1)c1ccc(Oc2ccc(F)cc2)cc1 [Compound 95, (2S,4R)-4-fluoro-4-(fluoromethyl)-1-((4-(4-fluorophenoxy)benzoyl)glycyl)-N-((S)-2-hydroxy-1-(1H-pyrrolo[3,2-c]pyridin-2-yl)ethyl)pyrrolidine-2-carboxamide] | > 1000
7 | CS(=O)(=O)[C@@H]1C[C@@H](C(=O)N[C@H](CO)c2cc3cnccc3[nH]2)N(C(=O)CNC(=O)c2ccc(Oc3ccc(F)cc3)cc2)C1 [Compound 96, (2S,4R)-1-((4-(4-fluorophenoxy)benzoyl)glycyl)-N-((S)-2-hydroxy-1-(1H-pyrrolo[3,2-c]pyridin-2-yl)ethyl)-4-(methylsulfonyl) pyrrolidine-2-carboxamide] | > 1000
8 | COC[C@@]1(F)C[C@@H](C(=O)N[C@H](CO)c2cc3cnccc3[nH]2)N(C(=O)CNC(=O)c2ccc(Oc3ccc(F)cc3)cc2)C1 [Compound 97, (2S,4R)-4-fluoro-1-((4-(4-fluorophenoxy)benzoyl)glycyl)-N-((S)-2-hydroxy-1-(1H-pyrrolo[3,2-c]pyridin-2-yl)ethyl)-4-(methoxymethyl) pyrrolidine-2-carboxamide] | > 1000
9 | O=C(NCC(=O)N1C[C@H](OC(F)F)C[C@H]1C(=O)N[C@H](CO)c1cc2cnccc2[nH]1)c1ccc(Oc2ccc(F)cc2)cc1 [Compound 98, (2S,4R)-4-(difluoromethoxy)-1-((4-(4-fluorophenoxy)benzoyl)glycyl)-N-((S)-2-hydroxy-1-(1H-pyrrolo[3,2-c]pyridin-2-yl)ethyl)pyrrolidine-2-carboxamide] | 100 to 1000
10 | CS(=O)(=O)[C@@H]1C[C@@H](C(=O)N[C@H](CO)c2cc3cnccc3[nH]2)N(C(=O)CNC(=O)c2ccc3c(c2)Oc2ccccc2S3)C1 [Compound 99, (2S,4R)-N-((S)-2-hydroxy-1-(1H-pyrrolo[3,2-c]pyridin-2-yl)ethyl)-4-(methylsulfonyl)-1-((phenoxathiine-3-carbonyl)glycyl) pyrrolidine-2-carboxamide] | < 100
11 | C[C@@H](NC(=O)[C@@H]1C[C@@H](OC(F)F)CN1C(=O)CN1Cc2cc(Br)ccc2C1=O)c1cc2cnccc2[nH]1 [Compound 100, (2S,4R)-N-((R)-1-(1H-pyrrolo[3,2-c]pyridin-2-yl)ethyl)-1-(2-(5-bromo-1-oxoisoindolin-2-yl)acetyl)-4-(difluoromethoxy)pyrrolidine-2-carboxamide] | 100 to 1000
12 | C[C@@H](NC(=O)[C@@H]1C[C@@H](OC(F)F)CN1C(=O)CN1Cc2cc(-c3ccc(F)cc3)ccc2C1=O)c1cc2cnccc2[nH]1 [Compound 101, (2S,4R)-N-((R)-1-(1H-pyrrolo[3,2-c]pyridin-2-yl)ethyl)-4-(difluoromethoxy)-1-(2-(5-(4-fluorophenyl)-1-oxoisoindolin-2-yl)acetyl)pyrrolidine-2-carboxamide] | < 100
13 | O=C(NCC(=O)N1C[C@H](OC(F)F)C[C@H]1C(=O)N[C@H](CO)c1cc2cnccc2[nH]1)c1ccc2c(c1)-c1ccccc1C2(F)F [Compound 103, (2S,4R)-1-((9,9-difluoro-9H-fluorene-3-carbonyl)glycyl)-4-(difluoromethoxy)-N-((S)-2-hydroxy-1-(1H-pyrrolo[3,2-c]pyridin-2-yl)ethyl) pyrrolidine-2-carboxamide] | 100 to 1000
14 | CS(=O)(=O)[C@@H]1C[C@@H](C(=O)N[C@H](CO)c2cc3cnccc3[nH]2)N(C(=O)CNC(=O)c2ccc3c(c2)-c2ccccc2C3(F)F)C1 [Compound 104, (2S,4R)-1-((9,9-difluoro-9H-fluorene-3-carbonyl)glycyl)-N-((S)-2-hydroxy-1-(1H-pyrrolo[3,2-c]pyridin-2-yl)ethyl)-4-(methylsulfonyl) pyrrolidine-2-carboxamide] | 100 to 1000
15 | Cc1ccc(-c2ccc3c(c2)CN(CC(=O)N2C[C@H](OC(F)F)C[C@H]2C(=O)N[C@H](C)c2cc4cnccc4[nH]2)C3=O)cc1 [Compound 105, (2S,4R)-N-((R)-1-(1H-pyrrolo[3,2-c]pyridin-2-yl)ethyl)-4-(difluoromethoxy)-1-(2-(1-oxo-5-(p-tolyl)isoindolin-2-yl)acetyl)pyrrolidine-2-carboxamide] | < 100
16 | Cc1ccc(-c2ccc3c(c2)CN(CC(=O)N2C[C@H](OC(F)F)C[C@H]2C(=O)N[C@H](C)c2cc4cnccc4[nH]2)C3=O)c(C)c1 [Compound 106, (2S,4R)-N-((R)-1-(1H-pyrrolo[3,2-c]pyridin-2-yl)ethyl)-4-(difluoromethoxy)-1-(2-(5-(2,4-dimethylphenyl)-1-oxoisoindolin-2-yl)acetyl)pyrrolidine-2-carboxamide] | < 100
17 | O=C(NCC(=O)N1CC2(C[C@H]1C(=O)NCc1cc3cnccc3[nH]1)OCCO2)c1ccc(-c2ccccc2)cn1 [Compound 107, (S)-N-((1H-pyrrolo[3,2-c]pyridin-2-yl)methyl)-7-((5-phenylpicolinoyl)glycyl)-1,4-dioxa-7-azaspiro[4.4]nonane-8-carboxamide] | < 100
18 | Cc1ccc(-c2cnc(C(=O)NCC(=O)N3CC4(C[C@H]3C(=O)NCc3cc5cnccc5[nH]3)OCCO4)c(F)c2)cc1 [Compound 108, (S)-N-((1H-pyrrolo[3,2-c]pyridin-2-yl)methyl)-7-((3-fluoro-5-(p-tolyl)picolinoyl)glycyl)-1,4-dioxa-7-azaspiro[4.4]nonane-8-carboxamide] | 100 to 1000
19 | C[C@@]12C[C@@H]1N(C(=O)CNC(=O)CCCOc1ccccc1)[C@H](C(=O)NC1(c3nc4cnccc4[nH]3)CC1)C2 [Compound 109, (1S,3S,5S)-N-(1-(1H-imidazo[4,5-c]pyridin-2-yl)cyclopropyl)-5-methyl-2-((4-phenoxybutanoyl)glycyl)-2-azabicyclo[3.1.0]hexane-3-carboxamide] | > 1000
20 | Cc1nc(N)ccc1CNC(=O)[C@@H]1C[C@]2(C)C[C@@H]2N1C(=O)CNC(=O)c1ccc2c(c1)Oc1ccccc1S2 [Compound 110, (1S,3S,5S)-N-((6-amino-2-methylpyridin-3-yl)methyl)-5-methyl-2-((phenoxathiine-3-carbonyl)glycyl)-2-azabicyclo[3.1.0]hexane-3-carboxamide] | > 1000
21 | O=C(NCC(=O)N1CC2(C[C@H]1C(=O)NCc1cc3cnccn3c1)OCCO2)c1ccc2c(c1)Oc1ccccc1S2 [Compound 111, 7-{2-[(Phenoxathiine-3-carbonyl)-amino]-acetyl}-1,4-dioxa-7-aza-spiro[4.4]nonane-8-carboxylic acid (pyrrolo[1,2-a]pyrazin-7-ylmethyl)-amide] | < 100
22 | C[C@@]12C[C@@H]1N(C(=O)CNC(=O)c1ccc3c(c1)Oc1ccccc1S3)[C@H](C(=O)NCc1cc3c(s1)CNCC3)C2 [Compound 112, (1S,3S,5S)-5-methyl-2-((phenoxathiine-3-carbonyl)glycyl)-N-((4,5,6,7-tetrahydrothieno[2,3-c]pyridin-2-yl)methyl)-2-azabicyclo[3.1.0]hexane-3-carboxamide] | < 100

From patent US20260062443A1 (ALEXION PHARMACEUTICALS, INC., priority 2022, published 2026)
